Where no end group is shown, it is not given here.
Tests used:
purified HLA DRB1 *0101 = purified HLA DRB1 *0101 (Homo sapiens, UniProt P01903+P01911, A100R/D57E/F55L/F60I/F76Y/I96L/L162R/M171V/P40L/Q125E/R42F/V115G/Y59C); assay: IC50nM to purified HLA | DRB1 *0101
Protocol: (§1) Table printed on a drawing sheet, FIG. 1
Head of the field: IC50nM to purified HLA | DRB1 *0101
(§2) First copying reader's note: The comma is the decimal sign and the point a thousands separator (e.g. 21.831); some values are printed bold or italic and some SEQ ID NOs underlined, with no legend on the sheet.
Where the first naming reader finds the target: head: IC50nM to purified HLA | DRB1 *0101

purified HLA DRB1 *0301 = purified HLA DRB1 *0301 (Homo sapiens, UniProt P01903+P01911, A100K/A102G/A103R/A169T/F55Y/I96L/K41T/L162R/M171V/P40S/Q125H/Q178H/Q39Y/R42S/S66N/T106N/T262R/W38E/Y61H); assay: IC50nM to purified HLA | DRB1 *0301
Protocol: as §1
Head of the field: IC50nM to purified HLA | DRB1 *0301
as §2
Where the first naming reader finds the target: head: IC50nM to purified HLA | DRB1 *0301

purified HLA DRB1 *0401 = purified HLA DRB1 *0401 (Homo sapiens, UniProt P01903+P01911, A100K/A169T/F76Y/I96L/K127E/L162R/M171V/N62H/P40V/Q125Y/R42H/S133A/S149N/S66Y/V115G/V209L/W38E); assay: IC50nM to purified HLA | DRB1 *0401
Protocol: as §1
Head of the field: IC50nM to purified HLA | DRB1 *0401
as §2
Where the first naming reader finds the target: head: IC50nM to purified HLA | DRB1 *0401

purified HLA DRB1 *0404 = purified HLA DRB1 *0404 (Homo sapiens, UniProt P01903+P01911, A100R/A169T/F76Y/I96L/K127E/L162R/M171V/N62H/P40V/Q125Y/R42H/S133A/S149N/S66Y/V209L/W38E); assay: IC50nM to purified HLA | DRB1 *0404
Protocol: as §1
Head of the field: IC50nM to purified HLA | DRB1 *0404
as §2
Where the first naming reader finds the target: head: IC50nM to purified HLA | DRB1 *0404

purified HLA DRB1 *0405 = purified HLA DRB1 *0405 (Homo sapiens, UniProt P01903+P01911, A100R/A169T/D86S/F76Y/I96L/K127E/L162R/M171V/N62H/P40V/Q125Y/R42H/S133A/S149N/S66Y/V115G/V209L/W38E); assay: IC50nM to purified HLA | DRB1 *0405
Protocol: as §1
Head of the field: IC50nM to purified HLA | DRB1 *0405
as §2
Where the first naming reader finds the target: head: IC50nM to purified HLA | DRB1 *0405

purified HLA DRB1 *0701 = purified HLA DRB1 *0701 (Homo sapiens, UniProt P01903+P01911, A100R/A102G/A103Q/D57E/D86V/E43K/F76Y/K127E/L162R/M171V/P40G/Q125H/Q99D/R33Q/R42Y/R54Q/S133A/S66F/T210M/V115G/Y107V/Y59L/Y89S); assay: IC50nM to purified HLA | DRB1 *0701
Protocol: as §1
Head of the field: IC50nM to purified HLA | DRB1 *0701
as §2
Where the first naming reader finds the target: head: IC50nM to purified HLA | DRB1 *0701

purified HLA DRB1 *0802 = purified HLA DRB1 *0802 (Homo sapiens, UniProt P01903+P01911, A100R/A103L/A169T/F76Y/H45Y/I96F/K41T/L162R/M171V/P40S/Q125H/Q178H/Q39Y/Q99D/R218S/R42G/S66Y/V115G/W38E); assay: IC50nM to purified HLA | DRB1 *0802
Protocol: as §1
Head of the field: IC50nM to purified HLA | DRB1 *0802
as §2
Where the first naming reader finds the target: head: IC50nM to purified HLA | DRB1 *0802

purified HLA DRB1 *0901 = purified HLA DRB1 *0901 (Homo sapiens, UniProt P01903+P01911, A100R/A103E/D57H/D86V/F55Y/F60I/F76Y/I96F/K127E/L162R/M171V/P40D/Q125H/Q99R/R33Q/R42F/S133A/S66N/T210M/V115G/W38K/Y107V/Y59G/Y89S); assay: IC50nM to purified HLA | DRB1 *0901
Protocol: as §1
Head of the field: IC50nM to purified HLA | DRB1 *0901
as §2
Where the first naming reader finds the target: head: IC50nM to purified HLA | DRB1 *0901

purified HLA DRB1 *1101 = purified HLA DRB1 *1101 (Homo sapiens, UniProt P01903+P01911, A100R/A169T/A87E/I96F/K41T/L162R/M171V/P40S/Q125H/Q178H/Q39Y/Q99D/R42S/S66Y/T262R/V115G/W38E); assay: IC50nM to purified HLA | DRB1 *1101
Protocol: as §1
Head of the field: IC50nM to purified HLA | DRB1 *1101
as §2
Where the first naming reader finds the target: head: IC50nM to purified HLA | DRB1 *1101

purified HLA DRB1 *1302 = purified HLA DRB1 *1302 (Homo sapiens, UniProt P01903+P01911, A100E/A169T/K41T/L162R/M171V/P40S/Q125H/Q178H/Q39Y/Q99D/R42S/S66N/T262R/V115G/W38E/Y61H); assay: IC50nM to purified HLA | DRB1 *1302
Protocol: as §1
Head of the field: IC50nM to purified HLA | DRB1 *1302
as §2
Where the first naming reader finds the target: head: IC50nM to purified HLA | DRB1 *1302

purified HLA DRB1 *1501 = purified HLA DRB1 *1501 (Homo sapiens, UniProt P01903+P01911); assay: IC50nM to purified HLA | DRB1 *1501
Protocol: as §1
Head of the field: IC50nM to purified HLA | DRB1 *1501
as §2
Where the first naming reader finds the target: head: IC50nM to purified HLA | DRB1 *1501

purified HLA DRB4 *0101 = purified HLA DRB4 *0101 (Homo sapiens, UniProt P01903+P13762, G164S); assay: IC50nM to purified HLA | DRB4 *0101
Protocol: as §1
Head of the field: IC50nM to purified HLA | DRB4 *0101
as §2
Where the first naming reader finds the target: head: IC50nM to purified HLA | DRB4 *0101

purified HLA DRB5 *0101 = purified HLA DRB5 *0101 (Homo sapiens, UniProt P01903+Q30154); assay: IC50nM to purified HLA | DRB5 *0101
Protocol: as §1
Head of the field: IC50nM to purified HLA | DRB5 *0101
as §2
Where the first naming reader finds the target: head: IC50nM to purified HLA | DRB5 *0101

Chain of purified HLA DRB1 *0301 (P01903 26-254 limits assumed, other chains not shown): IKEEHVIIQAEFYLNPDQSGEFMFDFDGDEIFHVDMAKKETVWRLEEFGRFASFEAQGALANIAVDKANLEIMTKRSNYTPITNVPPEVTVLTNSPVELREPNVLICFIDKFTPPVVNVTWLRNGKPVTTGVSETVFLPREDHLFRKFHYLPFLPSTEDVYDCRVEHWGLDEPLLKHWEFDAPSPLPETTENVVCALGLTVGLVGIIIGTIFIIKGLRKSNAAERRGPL
Chain of purified HLA DRB1 *1302 (P01903 26-254 limits assumed, other chains not shown): as above
Chain of purified HLA DRB1 *1101 (P01903 26-254 limits assumed, other chains not shown): as above
Chain of purified HLA DRB4 *0101 (P01903 26-254 limits assumed): as the sequence (P01903 26-254 limits assumed, other chains not shown) above
Chain of purified HLA DRB4 *0101 (P13762 whole entry G164S): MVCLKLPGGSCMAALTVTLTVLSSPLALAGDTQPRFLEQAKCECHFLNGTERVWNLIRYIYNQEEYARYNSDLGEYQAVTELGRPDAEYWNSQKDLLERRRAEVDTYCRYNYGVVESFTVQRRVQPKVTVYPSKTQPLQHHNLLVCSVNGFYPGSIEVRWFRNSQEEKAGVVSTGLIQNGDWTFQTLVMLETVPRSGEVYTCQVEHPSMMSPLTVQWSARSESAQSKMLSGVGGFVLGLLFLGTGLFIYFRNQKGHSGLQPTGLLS

Compound | IC50 (purified HLA DRB1 *0101) [µM] | IC50 (purified HLA DRB1 *0301) [µM] | IC50 (purified HLA DRB1 *0401) [µM] | IC50 (purified HLA DRB1 *0404) [µM] | IC50 (purified HLA DRB1 *0405) [µM] | IC50 (purified HLA DRB1 *0701) [µM] | IC50 (purified HLA DRB1 *0802) [µM] | IC50 (purified HLA DRB1 *0901) [µM] | IC50 (purified HLA DRB1 *1101) [µM] | IC50 (purified HLA DRB1 *1302) [µM] | IC50 (purified HLA DRB1 *1501) [µM] | IC50 (purified HLA DRB4 *0101) [µM] | IC50 (purified HLA DRB5 *0101) [µM]
CC(C)C[C@H](NC(=O)[C@@H](NC(=O)[C@H](Cc1c[nH]c2ccccc12)NC(=O)[C@H](C)NC(=O)[C@H](C)NC(=O)[C@@H](NC(=O)[C@H](Cc1ccccc1)NC(=O)[C@H](CCCCN)NC(=O)[C@H](C)N)C(C)C)[C@@H](C)O)C(=O)N[C@@H](CCCCN)C(=O)N[C@@H](C)C(=O)N[C@@H](C)C(=O)N[C@@H](C)C(=O)O [SEQ ID NO: 3] | 0.004 | 0.289 | 0.0014 | 0.00079 | 0.032 | 0.097 | 0.0095 | 0.05 | 0.0091 | 0.367 | 0.037 | 0.447 | 0.019
AAAFFVAAFTLKADA [SEQ ID NO: 18] | 0.043 |  | 0.0045 | 0.0061 | 0.0084 |  |  | 0.113 | 0.057 |  | 0.066 | 12.5 | 0.0094
AAAFFVAANTLHAAA [SEQ ID NO: 15] | 0.0065 |  | 0.0038 | 0.0041 | 0.027 |  |  | 0.031 | 0.042 | 0.064 | 0.07 | 0.876 | 
AAAFFVAANTLKADA [SEQ ID NO: 19] | 0.0034 | 0.14 | 0.004 | 0.0045 | 0.0095 |  |  |  | 0.046 | 0.187 | 0.103 | 5.52 | 0.0044
AAAFFVAAWTLKAAA [SEQ ID NO: 11] | 0.0057 | 0.227 | 0.0024 | 0.0073 | 0.031 | 0.074 |  | 0.031 | 0.027 | 2.81 | 0.032 | 0.517 | 0.0099
AAAFFVAAWTLKADA [SEQ ID NO: 16] | 0.0072 |  | 0.0053 | 0.0027 | 0.022 | 0.091 | 0.02 | 0.032 | 0.065 | 7.05 | 0.064 |  | 
AAAFFVAAYTLKADA [SEQ ID NO: 17] | 0.0038 |  | 0.005 | 0.006 | 0.033 | 0.045 | 0.0067 |  | 0.055 | 0.856 | 0.025 |  | 0.0073
AAAKFVAAWTLKAAA [SEQ ID NO: 4] | 0.0033 | 0.209 |  | 0.0029 | 0.025 | 0.049 | 0.0052 |  | 0.011 | 0.648 | 0.0098 | 0.207 | 0.0054
AAAWFVAANTLHAAA [SEQ ID NO: 10] | 0.0038 | 0.174 | 0.0029 |  |  | 0.043 | 0.0086 | 0.033 |  | 0.038 | 0.101 | 0.606 | 0.022
AAAWFVAAWTLHAAA [SEQ ID NO: 7] | 0.0043 | 0.111 |  | 0.002 |  | 0.084 |  | 0.033 | 0.032 | 4.24 | 0.036 | 0.447 | 
AAAWFVAAYTLHAAA [SEQ ID NO: 8] | 0.0039 | 0.16 | 0.0038 | 0.0032 | 0.024 | 0.091 |  | 0.019 |  | 3.11 | 0.0062 | 0.46 | 0.025
AAAYFVAAWTLKAAA [SEQ ID NO: 20] | 0.0027 |  | 0.0016 | 0.0014 | 0.0066 |  | 0.0061 |  | 0.011 | 0.917 |  | 0.291 | 0.0059
AAAYFVAAYTLHAAA [SEQ ID NO: 22] |  | 0.077 | 0.0023 | 0.0019 | 0.0073 | 0.065 | 0.0052 | 0.011 |  | 0.83 | 0.004 | 0.445 | 
